The values below are quoted from earlier work in patent US12558353B2 (CELLTAXIS, LLC, priority 2018, dated 2026).

One data set concerns LTB4 production. Conditions: cited from earlier work.
The test system of data set [1] is sputum neutrophils, sputum elastase, C-reactive protein, sputum LTB4. Conditions: cited from earlier work.
The conditions of data set [2]: Phase I studies; cited from earlier work.
Setting [3] is: once-daily, adult patients with CF.

Take `O=C(O)c1ccc(CN2C[C@@H]3C[C@H]2CN3Cc2ccc(Oc3ccc(-c4ncco4)cc3)cc2)cc1` [acebilustat, 4-{[(1S,4S)-5-({4-[4-oxazol-2-yl-phenoxy]phenyl}methyl)-2,5-diazabicyclo[2.2.1]heptan-2-yl]methyl}benzoic acid]: in the data set with LTB4 production (50 mg dose), the “peak reduction in LTB4 production” value is about 75%. Further, the “reduction of serum LTB4 production” value with LTB4 production (100 mg dose, near-maximum) is listed as 86%. Also, the C-reactive protein result in data set [1] (acebilustat treated groups) is listed as “Numerical reductions”. Besides, in data set [1] (setting [3]), the “reduction of sputum elastase levels” value was “up to 58%” and the “reduction of sputum neutrophil levels” value is “up to 65%”. The “sputum LTB4 levels, acebilustat- vs placebo-treated patients” value in data set [1] (patients with CF) is “decreased significantly”. In data set [2], the “drug-related serious adverse events” value is given as “no drug-related serious AEs” and the tolerability result was “well tolerated”.
